The subject of data set [1] is patients with AdvSM and other myeloid malignancies. Kind of data set: 3 + 3 dose escalation: MTD, DLT and RP2D. The class given is in vivo. Here is the method:
This phase 1, open-label study comprised a dose-escalation phase (part 1) and a dose-expansion phase (part 2; Fig. 1). During dose escalation, patients received oral avapritinib at starting doses ranging from 30 to 400 mg QD in continuous 28-d treatment cycles. Dose escalation followed a 3 + 3 design (described below) until the MTD or RP2D was determined. During part 1, intra-patient dose escalation to assess dose levels not exceeding the MTD was allowed. Dose expansion was initially conducted at a starting dose of 300 mg QD; a second expansion cohort at 200 mg QD was subsequently introduced via protocol amendment. Dosing continued until patients experienced unacceptable toxicity, disease progression, death or withdrew consent.
The 3 + 3 dose-escalation design used cohorts of three to six patients. The first cohort received avapritinib at a starting dose of 30 mg daily. […] Three patients were enrolled initially in each cohort with an additional accrual of three patients if the cohort required expansion due to DLT. Once the escalation cohort was full, up to three additional patients (diagnosis of AdvSM only) could be enrolled into an enrichment cohort at a lower dose. Data from these patients were intended for further exploration of PK, pharmacodynamics and safety in patients with AdvSM.
The safety population included all enrolled patients and was used to report AEs and PROs (in those who completed the questionnaire). The dose-determining population included all patients in a cohort in part 1 who received ≥21 prescribed avapritinib doses in C1 and completed follow-up through C1, or experienced DLT. The determination of the MTD and RP2D were based on the dose-determining population. […] The AdvSM safety population was also used to report AEs and OS. […] The response-evaluable population was used to report adjudicated response rates and PFS. The PK population comprised all patients with sufficient plasma concentration–time data to reliably estimate the PK parameters of avapritinib.

The test system of data set [2] is mast cell burden in patients with AdvSM. Kind of data set: Changes in measures of mast cell burden (BM mast cells, serum tryptase, spleen volume). The class given is in vivo, human. Here is the method:
(§1) Other secondary endpoints included PK, DOR and changes in measures of mast cell burden (percentage of BM mast cells, serum tryptase concentration, KIT D816V VAF by ddPCR (detection limit 0.17%), and spleen and liver volumes). PROs were measured by daily completion of AdvSM-SAF (described below) for patients in part 2 as a secondary outcome[37]–[39]. Exploratory endpoints included time to response, PFS and OS.
The percentage change from baseline in spleen and liver volume as measured by central radiographic assessment using an MRI or a CT scan was summarized over time in the safety population. In addition, maximum percentage reduction was presented in waterfall plots.
(§2) Responses were assessed according to the protocol schedule. Spleen size was assessed by palpation and by imaging with calculation of volume centrally. KIT D816V VAF in the BM (or in blood if unavailable) was centrally measured using a validated ddPCR assay with a lower limit of detection of 0.17% (Bio-Rad). Other somatic mutations in BM were centrally assayed at baseline by next-generation sequencing.

The subject of data set [3] is KIT D816V variant allele fraction. As to the kind of experiment: KIT D816V variant allele fraction in BM by central ddPCR. The data set is classed as in vivo, human. Conditions: for Complete elimination of measurable KIT D816V VAF, patients: post hoc. Here is the method: as §1, §2
The test system of data set [4] is KIT D816V. Details: method as in PMID 29093181. Conditions: immunoblot in a xenograft model; cited from earlier work. Background: Immunoblotting shows a protein as a band on a membrane.

The structures appear in SMILES notation. Entries after “also recorded” stand apart in the source; their conditions may differ.

`Cn1cc(-c2cc3c(N4CCN(c5ncc([C@@](C)(N)c6ccc(F)cc6)cn5)CC4)ncnn3c2)cn1` [avapritinib]: the “Maximum tolerated dose (MTD)” value in data set [1] (doses of 30–400 mg once daily) is reported as “No maximum tolerated dose (MTD) was determined; also recorded: not reached”. In addition, in data set [1] (human, in vivo, 28 d), the “Recommended phase 2 dose (RP2D)” value is listed as 200 mg and the “Recommended phase 2 dose (RP2D) initially selected for part 2” value is recorded as 300 mg QD. In data set [1] (in vivo), the “Patients with dose-limiting toxicity (DLT)” value was “one”. The “Patients with spleen volume reduced by ≥35%” value in data set [2] (66 patients with a baseline spleen volume assessment) is reported as 82%. For the same molecule, in data set [2] (patients with AdvSM), the “Patients with BM mast cells decreased by ≥50%” value stood at 92%, the “Patients with mast cell aggregates eliminated” value was 77%, the “Patients with serum tryptase reduced by ≥50%” value amounted to 99% and the “Patients with serum tryptase reduced to <20 ng ml^−1” value was found to be 74%. In addition, the “Patients with KIT D816V VAF in BM reduced from baseline by ≥50%” value in data set [3] (patients with AdvSM, ddPCR) was 80%. The “Patients in whom KIT D816V VAF in BM became undetectable” value in data set [3] (patients with AdvSM, ddPCR limit of detection 0.17%) stood at 30%. Moreover, the “Complete elimination of measurable KIT D816V VAF, patients” value (“Complete elimination” for short) in data set [3] (best response CR (n = 8)) was found to be 63%. For the same molecule, the “Complete elimination” value in data set [3] (best response CRh (n = 8)) was determined as 50%. In addition, in data set [3] (best response PR (n = 13)), the “Complete elimination” value came out at 23%. Further, the “Complete elimination” value in data set [3] (clinical improvement (n = 2) or stable disease (n = 11)) is 15%. Moreover, in data set [4], the “In vivo IC90 for inhibition of KIT D816V in xenograft model” value is 0.189 µg/mL.

The record behind these values is article PMC8674134, “Safety and efficacy of avapritinib in advanced systemic mastocytosis: the phase 1 EXPLORER trial” (Nature Medicine, 2021).
